One series deals with Phytophthora infestans. It is filed as in vivo. The note with it: 3 days after the inoculation, tomato, protective.
The nature of the next series: logP (HPLC). It is filed as physicochemical.
For series [1], the system named is greenhouse red spider mite (Tetranychus urticae). Kind of series: Tetranychus-Test (OP-resistant/dip treatment). The note with it: 168 h, read-out: kill.
Protocol: 7.5 parts by weight of dimethylformamide
100 parts by weight of methanol
Emulsifier: 2.5 parts by weight of alkylaryl polyglycol ether
After the desired period of time, the activity in % is determined. 100% means that all spider mites have been killed; 0% means that none of the spider mites have been killed.
The test system of series [2] is beet army-worm (Spodoptera frugiperda). Briefly: Spodoptera test. It is filed as in vivo. The following applies: 216 h, active compound concentration of 0.05%, after 9 days, larvae L2-L3 on synthetic feed, read-out: kill. How it is done: 100 parts by weight of acetone
1900 parts by weight of methanol
A stated amount of the preparation of active compound of the desired concentration is pipetted onto a standardized amount of synthetic feed. In 3 replications, one larva (L2 -L3) each of the beet army-worm (Spodoptera frugiperda) is placed on the feed.
After the desired period of time, the kill in % is determined.

The subject of the next series is Plasmopara viticola. Kind of series: Plasmopara-Test (Grapevines)/protective. Type of series: in vivo. The following applies: application rate of 50 g/ha, 6 days after the inoculation, protective.
[3] abbreviates: first of two values printed (x/y).

Like-named read-outs stand apart in the source and are kept apart here.

Take `COc1ccc(CCNC(=O)C(=NOC(C)=O)c2ccc3c(c2)CCCC3)cc1OC` [Example I-1, N-[(3,4-dimethoxyphenyl)-2-ethyl]-2-acetoxyimino-2-(2-tetrahydronaphthyl)-acetamide]: the “efficacy compared to the untreated control” value in the series with Phytophthora infestans (application rate of 50 g/ha) stood at 95%.

For the compound `CCOC(=O)ON=C(C(=O)NCCc1ccc(OC)c(OC)c1)c1ccc2c(c1)CCCC2` [Example I-3], the chromatographic logP – broadly, lipophilicity estimated from chromatographic retention – came to 3.19 in the series “logP (HPLC)” (setting [3]) and 3.55 in the series “logP (HPLC)” (second of two values).

Regarding `COc1ccc(CCNC(=O)C(=NOC(=O)OC(C)C)c2ccc3c(c2)CCCC3)cc1OC` [Example I-4], the chromatographic logP came to 3.55 in the series “logP (HPLC)” (setting [3]) and 3.84 in the series “logP (HPLC)” (second of two values).

`COc1ccc(CCNC(=O)C(=NOC(=O)Oc2ccccc2)c2ccc3c(c2)CCCC3)cc1OC` [Example I-5]: the chromatographic logP is 3.82 in the series “logP (HPLC)” (setting [3]) and 4.09 in “logP (HPLC)” (second of two values).

With `COc1ccc(CCNC(=O)C(=NOC(=O)OC2CCCCC2)c2ccc3c(c2)CCCC3)cc1OC` [Example I-6], the results for the chromatographic logP in “logP (HPLC)” (setting [3]) and in the series “logP (HPLC)” (second of two values) were 4.2 and 4.62, respectively.

On to `COc1ccc(CCNC(=O)C(=NOC(=O)c2ccccc2)c2ccc3c(c2)CCCC3)cc1OC` [Example I-7], for which the chromatographic logP in the series “logP (HPLC)” (setting [3]) was determined as 3.69; in “logP (HPLC)” (second of two values), 4.1.

`CCOC(=O)ON=C(C(=O)NCCc1ccc(OC)c(OC)c1)c1ccc(Br)cc1` [Example I-10]: the chromatographic logP in “logP (HPLC)” (single value given) turned out to be 3.19.

Take `COC(=O)ON=C(C(=O)NCCc1ccc(OC)c(OC)c1)c1ccc2c(c1)CCC2` [Example I-11]: the figures for the chromatographic logP in the series “logP (HPLC)” (setting [3]) and in “logP (HPLC)” (second of two values) were 2.78 and 2.97, respectively.

Take `COc1ccc(CCNC(=O)C(=NOC(C)=O)c2ccc3c(c2)CCC3)cc1OC` [Example I-12]: the chromatographic logP was 2.65 in “logP (HPLC)” (setting [3]) and 2.87 in “logP (HPLC)” (second of two values).

For `CCOC(=O)ON=C(C(=O)NCCc1ccc(OC)c(OC)c1)c1ccc2c(c1)CCC2` [Example I-13], the chromatographic logP amounted to 3.04 in the series “logP (HPLC)” (setting [3]) and 3.27 in the series “logP (HPLC)” (second of two values).

With `CCc1ccc(C(=NOC(=O)OC)C(=O)NCCc2ccc(OC)c(OC)c2)cc1` [Example I-14], the mortality at 0.05 % in series [1] amounted to 100%. The chromatographic logP stood at 2.73 in the series “logP (HPLC)” (setting [3]) and 2.94 in the series “logP (HPLC)” (second of two values).

In turn, `CCOC(=O)ON=C(C(=O)NCCc1ccc(OC)c(OC)c1)c1ccc(CC)cc1` [Example I-15] returned a chromatographic logP in the series “logP (HPLC)” (single value given) of 2.98.

As to `CCc1ccc(C(=NOC(C)=O)C(=O)NCCc2ccc(OC)c(OC)c2)cc1` [Example I-16], the values for the chromatographic logP in “logP (HPLC)” (setting [3]) and in the series “logP (HPLC)” (second of two values) were 2.42 and 2.6, respectively.

For `CCON=C(C(=S)NCCc1ccc(OC)c(OC)c1)c1ccc(Cl)cc1` [Example II-1, N-[2-(3,4-dimethoxyphenyl)-ethyl]-2-ethoximino-2-(4-chlorophenyl)-thioacetamide], the chromatographic logP in “logP (HPLC)” (e isomer) amounted to 3.73; in the series “logP (HPLC)” (z isomer), 4.03.

As for `CCON=C(C(=O)NCCc1ccc(OC)c(OC)c1)c1ccc(Cl)cc1` [Example II-II-1], the figures for the chromatographic logP in “logP (HPLC)” (e isomer) and in “logP (HPLC)” (z isomer) were 3.07 and 3.34, respectively.

In the case of `CCON=C(C(=O)NCCc1ccc(OC)c(OC)c1)c1ccc2c(c1)OCC2` [Example III-1, N-[2-(3,4dimethoxyphenyl)-ethyl]-2-(2,3-dihydrobenzofuran-6-yl)2-ethoximino-acetamide], the “efficacy compared to the untreated control” value in the series with Phytophthora infestans (application rate of 500 g/ha) is listed as 95%.

As for `CCON=C(C(=O)NCCc1ccc(OC)c(OC)c1)c1ccc2c(c1)Cc1ccccc1C2` [Example IV-1], the chromatographic logP in the series “logP (HPLC)” (e isomer) stood at 3.62; in “logP (HPLC)” (z isomer), 4.

Regarding `CCON=C(C(=S)NCCc1ccc(OC)c(OC)c1)c1ccc2c(c1)CCCC2` [II-2], the chromatographic logP in the series “logP (HPLC)” (setting [3]) worked out at 4.13; in the series “logP (HPLC)” (second of two values), 4.41.

Turning to `CON=C(C(=S)NCCc1ccc(OC)c(OC)c1)c1ccc(C)cc1` [II-3], the chromatographic logP in “logP (HPLC)” (setting [3]) amounted to 3.15; in the series “logP (HPLC)” (second of two values), 3.41.

In the case of `CCc1ccc(C(=NOC)C(=S)NCCc2ccc(OC)c(OC)c2)cc1` [II-4], the mortality at 0.05 % in series [2] amounted to 100%. Also, the chromatographic logP in “logP (HPLC)” (setting [3]) came out at 3.5; in “logP (HPLC)” (second of two values) it was 3.77.

On to `CCON=C(C(=S)NCCc1ccc(OC)c(OC)c1)c1ccc(Br)cc1` [II-5], for which the chromatographic logP is 3.82 in “logP (HPLC)” (setting [3]) and 4.14 in “logP (HPLC)” (second of two values).

For the compound `CON=C(C(=S)NCCc1ccc(OC)c(OC)c1)c1ccc(Br)cc1` [II-6], the “efficacy compared to the untreated control” value in the series on Plasmopara viticola is reported as 89%. Besides, the chromatographic logP turned out to be 3.5 in the series “logP (HPLC)” (setting [3]) and 3.8 in “logP (HPLC)” (second of two values).

Take `CCON=C(C(=S)NCCc1ccc(OC)c(OC)c1)c1cccc(CC)c1` [II-8]: the chromatographic logP in “logP (HPLC)” (setting [3]) turned out to be 3.82; in the series “logP (HPLC)” (second of two values), 4.09.

Consider `CCON=C(C(=S)NCCc1ccc(OC)c(OC)c1)c1ccc2c(c1)CCC2` [II-10], for which the chromatographic logP came to 3.87 in the series “logP (HPLC)” (setting [3]) and 4.13 in “logP (HPLC)” (second of two values).

Take `CON=C(C(=O)NCCc1ccc(OC)c(OC)c1)c1ccc2c(c1)OCC2` [III-2]: the chromatographic logP in “logP (HPLC)” (setting [3]) was 2.24; in “logP (HPLC)” (second of two values) it was 2.46.

Regarding `CON=C(C(=O)NCCc1ccc(OC)c(OC)c1)c1ccc2c(c1)CCc1ccccc1C2` [IV-2], in the series with Phytophthora infestans (application rate of 50 g/ha), the “efficacy compared to the untreated control” value is listed as 96%. Further, the chromatographic logP was determined as 3.61 in “logP (HPLC)” (setting [3]) and 3.87 in “logP (HPLC)” (second of two values).

In the case of `CCON=C(C(=O)NCCc1ccc(OC)c(OC)c1)c1ccc2c(c1)CCc1ccccc1C2` [IV-3], the “efficacy compared to the untreated control” value with Phytophthora infestans (application rate of 50 g/ha) was found to be 96%. In addition, the chromatographic logP in the series “logP (HPLC)” (setting [3]) was 3.91; in “logP (HPLC)” (second of two values), 4.2.

On to `CON=C(C(=O)NCCc1ccc(OC)c(OC)c1)c1ccc2c(c1)Cc1ccccc1C2` [IV-4], for which the chromatographic logP in the series “logP (HPLC)” (setting [3]) was determined as 3.31; in “logP (HPLC)” (second of two values), 3.68.

These data come from US6225334A (priority 1996, dated 2001).
